Source: ChEMBL document CHEMBL1159227, “Piperogalin, a new prenylated diphenol from Peperomia galioides” (1995)
The source made the active and inactive calls. The calls are words filed in the database; no cut-off is given here.

Legend:
[1] = test system: Trypanosoma cruzi; assay: Antitrypanosomal activity against Trypanosoma cruzi Y trypomastigotes assessed as lysis of trypomastigotes at 250 ug/ml after 24 hrs at 4 degC; type: functional
[2] = test system: Leishmania braziliensis; assay: Antileishmanial activity against Leishmania braziliensis 2903 promastigotes assessed as total lysis of parasites at 100 ug/ml after 24 hrs at 28 degC; type: functional, organism-based
[3] = test system: Leishmania donovani; assay: Antileishmanial activity against Leishmania donovani PP75 promastigotes assessed as total lysis of parasites at 50 ug/ml after 24 hrs at 28 degC; type: functional, organism-based
[4] = test system: Leishmania amazonensis; assay: Antileishmanial activity against Leishmania amazonensis promastigotes assessed as total lysis of parasites at 50 ug/ml after 24 hrs at 28 degC; type: functional, organism-based
[5] = test system: Leishmania braziliensis; assay: Antileishmanial activity against Leishmania braziliensis 2903 promastigotes assessed as total lysis of parasites at 25 ug/ml after 24 hrs at 28 degC; type: functional, organism-based
[6] = test system: Leishmania donovani; assay: Antileishmanial activity against Leishmania donovani PP75 promastigotes assessed as total lysis of parasites at 25 ug/ml after 24 hrs at 28 degC; type: functional, organism-based
[7] = test system: Leishmania amazonensis; assay: Antileishmanial activity against Leishmania amazonensis promastigotes assessed as total lysis of parasites at 25 ug/ml after 24 hrs at 28 degC; type: functional, organism-based
[8] = test system: Leishmania braziliensis; assay: Antileishmanial activity against Leishmania braziliensis 2903 promastigotes assessed as lysis of parasites at 10 ug/ml after 24 hrs at 28 degC; type: functional
[9] = test system: Leishmania donovani; assay: Antileishmanial activity against Leishmania donovani PP75 promastigotes assessed as lysis of parasites at 10 ug/ml after 24 hrs at 28 degC; type: functional
[10] = test system: Leishmania amazonensis; assay: Antileishmanial activity against Leishmania amazonensis promastigotes assessed as lysis of parasites at 10 ug/ml after 24 hrs at 28 degC; type: functional
[11] = test system: Leishmania donovani; assay: Antileishmanial activity against Leishmania donovani PP75 promastigotes assessed as total lysis of parasites at 100 ug/ml after 24 hrs at 28 degC; type: functional, organism-based
[12] = test system: Leishmania amazonensis; assay: Antileishmanial activity against Leishmania amazonensis H142 promastigotes assessed as total lysis of parasites at 100 ug/ml after 24 hrs at 28 degC; type: functional, organism-based
[13] = test system: Leishmania braziliensis; assay: Antileishmanial activity against Leishmania braziliensis 2903 promastigotes assessed as total lysis of parasites at 50 ug/ml after 24 hrs at 28 degC; type: functional, organism-based
[14] = test system: Leishmania braziliensis; assay: Antileishmanial activity against Leishmania braziliensis 2903 promastigotes assessed as immobilized parasites at 10 ug/ml after 24 hrs at 28 degC; type: functional, organism-based
[15] = test system: Leishmania donovani; assay: Antileishmanial activity against Leishmania donovani PP75 promastigotes assessed as immobilized parasites at 10 ug/ml after 24 hrs at 28 degC; type: functional, organism-based
[16] = test system: Leishmania amazonensis; assay: Antileishmanial activity against Leishmania amazonensis promastigotes assessed as immobilized parasites at 10 ug/ml after 24 hrs at 28 degC; type: functional, organism-based
[17] = test system: Leishmania braziliensis; assay: Antileishmanial activity against Leishmania braziliensis 2903 promastigotes assessed as immobilized parasites at 100 ug/ml after 24 hrs at 28 degC; type: functional, organism-based

Structure (SMILES) | Activity [1] [%] | Activity [2] | Activity [3] | Activity [4] | Activity [5] | Activity [6] | Activity [7] | Activity [8] [%] | Activity [9] [%] | Activity [10] [%] | Activity [11] | Activity [12] | Activity [13] | Activity [14] | Activity [15] | Activity [16] | Activity [17]
CC(C)=CCC/C(C)=C/Cc1c(O)cc(C)c(CC=C(C)C)c1O [PIPEROGALIN] | 42 | Active | Active | Active | Active | Active | Active | >90 | >90 | >90 | Active | Active | – | – | – | – | –
CC(C)=CCC/C(C)=C/CC/C(C)=C/Cc1c(O)cc(C)cc1O [GRIFOLIN] | 68 | Active | Active | Active | Active | Active | Active | – | – | – | Active | Active | Active | Active | Active | Active | –
CC(C)=CCC/C(C)=C/CC/C(C)=C/Cc1c(O)cc(C)c(C(=O)O)c1O [GRIFOLIC ACID] | 0 | – | – | – | – | – | – | – | – | – | Active | Active | – | – | – | – | Active
